Results taken from ChEMBL document CHEMBL4431347, “Synthesis and biological evaluation of novel (E)-N'-(2,3-dihydro-1H-inden-1-ylidene) benzohydrazides as potent LSD1 inhibitors” (Bioorg Med Chem Lett, 2016).

Experiments:
MCF7 [1] = experiment: Antiproliferative activity against human MCF7 cells over-expressing LSD1 assessed as reduction in cell viability measured after 72 hrs by MTT assay; conditions: MCF7, 72 h
MDA-MB-231 [2] = experiment: Antiproliferative activity against human MDA-MB-231 cells over-expressing LSD1 assessed as reduction in cell viability measured after 96 hrs by MTT assay; conditions: MDA-MB-231, 96 h
SMMC-7721 [3] = experiment: Antiproliferative activity against human SMMC7721 cells over-expressing LSD1 assessed as reduction in cell viability measured after 96 hrs by MTT assay; conditions: SMMC-7721, 96 h
HCT-116 [4] = experiment: Antiproliferative activity against human HCT116 cells over-expressing LSD1 assessed as reduction in cell viability measured after 96 hrs by MTT assay; conditions: HCT-116, 96 h
MDA-MB-231 [5] = experiment: Antiproliferative activity against human MDA-MB-231 cells over-expressing LSD1 assessed as reduction in cell viability measured after 72 hrs by MTT assay; conditions: MDA-MB-231, 72 h
A549 [6] = experiment: Antiproliferative activity against human A549 cells over-expressing LSD1 assessed as reduction in cell viability measured after 72 hrs by MTT assay; conditions: A549, 72 h
PC-3 [7] = experiment: Antiproliferative activity against human PC3 cells over-expressing LSD1 assessed as reduction in cell viability measured after 96 hrs by MTT assay; conditions: PC-3, 96 h
NCI-H1299 [8] = experiment: Antiproliferative activity against human NCI-H1299 cells over-expressing LSD1 assessed as reduction in cell viability measured after 96 hrs by MTT assay; conditions: NCI-H1299, 96 h
PC-3 [9] = experiment: Antiproliferative activity against human PC3 cells over-expressing LSD1 assessed as reduction in cell viability measured after 72 hrs by MTT assay; conditions: PC-3, 72 h
A2780 [10] = experiment: Antiproliferative activity against human A2780 cells over-expressing LSD1 assessed as reduction in cell viability measured after 72 hrs by MTT assay; conditions: A2780, 72 h
DU-145 [11] = experiment: Antiproliferative activity against human DU145 cells over-expressing LSD1 assessed as reduction in cell viability measured after 72 hrs by MTT assay; conditions: DU-145, 72 h
SMMC-7721 [12] = experiment: Antiproliferative activity against human SMMC7721 over-expressing LSD1 cells assessed as reduction in cell viability measured after 72 hrs by MTT assay; conditions: SMMC-7721, 72 h
DU-145 [13] = experiment: Antiproliferative activity against human DU145 cells over-expressing LSD1 assessed as reduction in cell viability measured after 96 hrs by MTT assay; conditions: DU-145, 96 h
A2780 [14] = experiment: Antiproliferative activity against human A2780 cells over-expressing LSD1 assessed as reduction in cell viability measured after 96 hrs by MTT assay; conditions: A2780, 96 h
MCF7 [15] = experiment: Antiproliferative activity against human MCF7 cells over-expressing LSD1 assessed as reduction in cell viability measured after 96 hrs by MTT assay; conditions: MCF7, 96 h
NCI-H1299 [16] = experiment: Antiproliferative activity against human NCI-H1299 cells over-expressing LSD1 assessed as reduction in cell viability measured after 72 hrs by MTT assay; conditions: NCI-H1299, 72 h
A549 [17] = experiment: Antiproliferative activity against human A549 cells over-expressing LSD1 assessed as reduction in cell viability measured after 96 hrs by MTT assay; conditions: A549, 96 h
HCT-116 [18] = experiment: Antiproliferative activity against human HCT116 cells over-expressing LSD1 assessed as reduction in cell viability measured after 72 hrs by MTT assay; conditions: HCT-116, 72 h

SMILES | IC50 (MCF7 [1]) | IC50 (MDA-MB-231 [2]) | IC50 (SMMC-7721 [3]) | IC50 (HCT-116 [4]) | IC50 (MDA-MB-231 [5]) | IC50 (A549 [6]) | IC50 (PC-3 [7]) | IC50 (NCI-H1299 [8]) | IC50 (PC-3 [9]) | IC50 (A2780 [10]) | IC50 (DU-145 [11]) | IC50 (SMMC-7721 [12]) | IC50 (DU-145 [13]) | IC50 (A2780 [14]) | IC50 (MCF7 [15]) | IC50 (NCI-H1299 [16]) | IC50 (A549 [17]) | IC50 (HCT-116 [18])
C/C(=N\NC(=O)c1cccc(S(=O)(=O)N2CCOCC2)c1)c1cc(Cl)ccc1O | 440 nM | 750 nM | 5360 nM | 330 nM | 1400 nM | 2690 nM | 4450 nM | 1730 nM | 19700 nM | 2140 nM | 13100 nM | 15800 nM | 620 nM | 770 nM | 190 nM | 3010 nM | 830 nM | 650 nM
O=C(N/N=C1\CCc2c(Cl)ccc(O)c21)c1cccc(S(=O)(=O)N2CCOCC2)c1 | 410 nM | 460 nM | 1220 nM | 270 nM | 710 nM | 780 nM | 760 nM | 980 nM | 2450 nM | 1130 nM | 2950 nM | 3160 nM | 180 nM | 790 nM | 300 nM | 3330 nM | 400 nM | 480 nM
O=C(N/N=C1\CCc2cccc(O)c21)c1cccc(S(=O)(=O)N2CCOCC2)c1 | 300 nM | 410 nM | 1340 nM | 250 nM | 680 nM | 920 nM | 1000 nM | 790 nM | 3110 nM | 810 nM | 2490 nM | 2960 nM | 220 nM | 340 nM | 220 nM | 2010 nM | 390 nM | 360 nM
